The structures appear in SMILES notation. Calls of active or inactive are those of the source. The calls are words filed in the database; no cut-off is given here.

Consider ten molecules from ChEMBL document CHEMBL1137251, “Synthesis of rigid trichostatin A analogs as HDAC inhibitors” (Bioorg Med Chem Lett, 2006).

Test [1] is described as follows: Antiproliferative activity against H661 cells. The format is functional, cell-based. Conditions: Homo sapiens, NCI-H661.
A further test relates to HCT-116. The experiment in a line: Antiproliferative activity against HCT116 cells. The test is classed as functional, cell-based. The note with it: Homo sapiens.
A short description of test [2]: Antiproliferative activity against H1299 cells. The note with it: Homo sapiens, NCI-H1299. The format is functional, cell-based.
Test [3] addresses Histone H4 (Homo sapiens) (UniProt P62805). In words: Acetylation of histone H4 at 0.3 uM by Western blot analysis. (In general: A western blot detects proteins with antibodies after separation by electrophoresis.)
Test [4] shares this target. In words: Acetylation of histone H4 at 2.5 uM by Western blot analysis.
Test [5] shares this target. The experiment in a line: Acetylation of histone H4 at 5 uM by Western blot analysis.

Take `C=C(/C=C/C(=O)Nc1ccccc1N)CC1(C)Cc2ccccc2C1=O` (centres undefined): in test [1], the IC50 (as a rule, the concentration at which inhibition is half-maximal) is greater than 10000 nM. As for `CC(/C=C/C(=O)NO)=C\[C@@H](C)C(=O)c1ccc(N(C)C)cc1` [TRICHOSTATIN], the IC50 with HCT-116 is 1.3 nM; in test [1], less than 300 nM; in test [2], 100 nM. `CC(/C=C/C(=O)Nc1ccccc1N)=C\C1(C)Cc2cc(N(C)C)ccc2C1=O` (centres undefined): in test [1], the 50% inhibitory concentration (IC50) amounted to 2500 nM. Regarding `CC(/C=C/C(=O)NO)=C\C1(C)Cc2cc(N(C)C)ccc2C1=O` (centres undefined), the outcome in test [3] was Active. The molecule `CC(/C=C/C(=O)Nc1ccccc1N)=C\C1(C)Cc2cc(F)ccc2C1=O` (centres undefined) returned an IC50 in test [1] of 7000 nM.

`CC(/C=C/C(=O)NO)=C\C1(C)Cc2ccccc2C1=O` (centres undefined) registered an IC50 in test [1] of 1650 nM. Molecule `CC(/C=C/C(=O)NO)=C\C1(C)Cc2cc(F)ccc2C1=O` (centres undefined) returned an IC50 in test [1] of 1500 nM. Also, in test [4], the outcome was Active.

With `CC(/C=C/C(=O)Nc1ccccc1N)=C\C1(C)CCc2ccccc2C1=O` (centres undefined), the IC50 in test [1] amounted to 5000 nM.

`CC(/C=C/C(=O)Nc1ccccc1N)=C\C1(C)Cc2ccccc2C1=O` (centres undefined) registered an IC50 in test [1] of 3000 nM. As for `CC(/C=C/C(=O)NO)=C\C1(C)CCc2ccccc2C1=O` (centres undefined), in test [5], the result was Active. In test [1], 3000 nM corresponded to half-maximal inhibition (IC50).
